Earlier results as cited in patent publication US20060270852A1, “PREPARATION OF BISQUINOLINE COMPOUNDS” (priority 2005, published 2006).
Where two headings read alike, the source gives them in different places.

What was measured:
[1] = not given; remark: listed apart in the source
[2] = system: falciparum and vivax malaria

Row | SMILES | dissociation constant [pKa] | solubility in water ([1]; at neutral and alkaline pH) | efficacy compared with chloroquine ([2]; against falciparum and vivax malaria) | tolerability compared with chloroquine ([2]; in vivo) | solubility in water [1]
1 | Clc1ccc2c(N3CCN(CCCN4CCN(c5ccnc6cc(Cl)ccc56)CC4)CC3)ccnc2c1 [piperaquine, 1,3-Bis-[4-(7′-chloro-quinoline-4′)piperazine-1]propane] | 8.92 | only sparingly soluble in water | at least as effective as | better tolerated than | –
2 | Clc1ccc2c(N3CCN(CCCN4CCN(c5ccnc6cc(Cl)ccc56)CC4)CC3)ccnc2c1 [Piperaquine phosphate] | – | – | – | – | soluble in water
